Experimental data as given in US4629737A, “Secondary amines and use in pharmaceutical compositions” (Beecham Group p.l.c., priority 1982, dated 1986).
Structures can show the parent of a compound that is named as a salt. Where two headings read alike, the source gives them in different places.

What was measured:
[1] = tested on: platelet aggregation in human whole blood; assay: Collagen-induced platelet aggregation in human whole blood in vitro; type: cell-based; conditions: final concentration in whole blood 200 μM; 3 mins pre-incubation
Method: Collagen-induced platelet aggregation in human whole blood in vitro.
Collagen added to stirred citrated blood causes platelet aggregation. As the platelets aggregate, the concentration of single platelets falls. […] Inhibitors of aggregation, such as aspirin and dipyridamole, reduce the response to collagen.
Blood drawn from volunteers who denied taking aspirin within the previous seven days was mixed with 0.1 vol 129 mM trisodium citrate, dispensed into 0.5 ml aliquots and kept at 25° C. Collagen (Hormon-Chemie, Munich) or 154 mM NaCl (control) was added to each aliquot of blood stirred at 1100 rpm in an aggregometer at 37° C. after 3 mins pre-incubation with compound or appropriate solvent. Aggregates were fixed by addition of 0.5 vol 4.5% formaldehyde or 0.05 vol phosphate-buffered glutaraldehyde. Single platelets were counted electronically. Responses, expressed as percent fall in platelet count, were obtained to a range of collagen concentrations. The concentration producing 50% maximal effect (EC50) was estimated from log10 concentration-response curves. Dose-ratios were calculated by dividing the EC50 obtained in the presence of compound under test by the control EC50.

left atrium = assay: Isolated rat atria screen: tension of electrically paced left atrium; design: species or system Sprague-Dawley male rats; conditions: for Emax: maximal effect relative to isoprenaline maximum (=1), read-out: Tension i.a. (intrinsic activity)
Method: (§1) Sprague-Dawley male rats (300-400 g) are killed and the right and left atria dissected out independently and mounted on a combined tissue holder/electrode. The tissues are then immersed in a glass bath containing Krebs solution maintained at 32° C. The rate of the spontaneously beating right atrium (via an isometric transducer and a ratemeter) and the tension of the electrically paced left atrium (via an isometric transducer) are recorded on an M19 chart recorder.
(§2) After an initial stabilization period, the tissues are exposed to a maximal concentration of isoprenaline (10^-7 M). The tissues are then washed several times until rate and tension return to baseline level. A dose-response curve to the test compound is then carried out.
(§3) Responses to each concentration of test compound are expressed as a percentage of the maximal responses to isoprenaline. Results are given in the form of (a) intrinsic activity (i.a.) (maximal effect of test compound with respect to isoprenaline maximum, i.e. isoprenaline intrinsic activity=1) and (b) EC50 (the molar concentration at which the test compound produces 50% of its own maximum response).

blood glucose = assay: Hypoglycaemic activity: reduction in area under blood glucose curve after glucose load; type: in vivo, Female CFLP mice; conditions: Mus musculus
Method: Female CFLP mice, weighing approximately 25 g, were fasted for 24 hours prior to the study. The compounds under study were administered orally as an aqueous solution to each of 6 mice. 30 minutes later a blood sample (10 μl) was obtained from the tail for the analysis of blood glucose. Immediately after taking this blood sample, glucose (1 g/Kg body weight) was administered subcutaneously to each mouse. 6 mice were given water as a control. Blood samples were then obtained from each mouse at 30 minute intervals for 120 minutes.
Compounds that produced a significant (P<0.05) reduction of blood glucose, compared with control mice given water, at any time interval, were considered active. The area under the blood glucose curve over the 2 hour period after the administration of the glucose was calculated for each compound and compared with the value for control animals.

[2] = Effect on energy expenditure of mice; type: in vivo, Female CFLP mice; conditions: Mus musculus; for response vs control in vivo at 8.5 mg/kg: 8.5 mg/kg po
Method: Female CFLP mice, each weighing approximately 24 g were given food and water ad lib before and during the experiment. The compounds were dissolved in water by addition of one mole of hydrochloric acid per mole of compound and these solutions were administered orally to each of 12 mice. A further 12 mice were dosed orally with water. The mice were placed in boxes through which air was drawn and the oxygen content of the air leaving the boxes was measured. The energy expenditure of the mice was calculated for 21 hours after dosing from the volume of air leaving the boxes and its oxygen content, following the principles described by J. B. de V. Weir, J. Physiol. (London), 109, 1-9 (1949).

right atrium = assay: Isolated rat atria screen: rate of spontaneously beating right atrium; design: species or system Sprague-Dawley male rats; conditions: for Emax: maximal effect relative to isoprenaline maximum (=1), read-out: Rate i.a. (intrinsic activity)
Method: as §1, §2, §3

[3] = po, 2 h, read-out: % Reduction in area under Blood Glucose Curve
[4] = po, 3 h, read-out: Mean Energy Expenditure (0-3 h)
[5] = po, 21 h, read-out: Mean Energy Expenditure (0-21 h)
[6] = concentration producing 50% of its own maximum response

With `CC(=O)Oc1ccccc1C(=O)O` [Aspirin, reference compound] the “DOSE RATIO (EC50 of collagen with compound / control EC50)” value [1] was 2.0 ± 0.1.
For `OCCN(CCO)c1nc(N2CCCCC2)c2nc(N(CCO)CCO)nc(N3CCCCC3)c2n1` [Dipyridamole, reference compound], the “DOSE RATIO (EC50 of collagen with compound / control EC50)” value [1] was 3.7 ± 1.1.
Molecule `CNCCOc1ccc(CC(C)NCC(OC)c2cccc(Cl)c2)cc1` (centres unmarked) [Example 6, N-[2-(4-(2-Methylaminoethoxy)phenyl)-1-methylethyl]-2-methoxy-2-(3-chlorophenyl)ethanamine dihydrochloride] has an Emax (left atrium) of 0%, an inhibition in vivo at 12.5 µmol/kg (blood glucose; [3]) of 55% and a response vs control in vivo at 22.5 mg/kg [2, 4] of 154%. For the same molecule, the response vs control in vivo at 22.5 mg/kg [2, 5] was 126% and the Emax (right atrium) was 0%.
`CNC(=O)COc1ccc(CC(C)NCC(OC)c2cccc(C(F)(F)F)c2)cc1` (centres unmarked) [Example 7, N-[2-(4-Methylaminocarbonylmethoxyphenyl)-1-methylethyl]-2-methoxy-2-(3-trifluoromethylphenyl)ethanamine hydrochloride] showed an EC50 (left atrium; [6]) of 36 µM, an Emax (left atrium) of 23% and an inhibition in vivo at 2.5 µmol/kg (blood glucose; [3]) of 32%. It also gave a response vs control in vivo at 23 mg/kg [2, 4] of 143%, a response vs control in vivo at 23 mg/kg [2, 5] of 123% and an EC50 (right atrium; [6]) of 1.5 µM. It also gave an Emax (right atrium) of 6%.
With `CCCCCCOC(CNC(C)Cc1ccc(OCC(=O)OC)cc1)c1cccc(Cl)c1` (centres unmarked) [Example 44, N-[2-(4-Carbomethoxymethoxyphenyl)-1-methylethyl]-2-^n hexyloxy-2-(3-chlorophenyl)ethanamine hydrochloride] the inhibition in vivo at 7.5 µmol/kg (blood glucose; 7.5 μmol/Kg oral, 2 h after glucose 1 g/Kg s.c., vs control) was 34%, the response vs control in vivo at 24.9 mg/kg [2, 4] was 145% and the response vs control in vivo at 24.9 mg/kg ([2]; 24.9 mg/kg po, 0-21 h, read-out: Mean Energy Expenditure (0-21 h)) was 101%.
`CNCCOc1ccc(CC(C)NCC(OC)c2cccc(C(F)(F)F)c2)cc1` (centres unmarked) [Example 46, N-[2-(4-(2-Methylaminoethoxy)phenyl)-1-methylethyl]-2-methoxy-2-(3-trifluoromethylphenyl)ethanamine dihydrochloride] showed an inhibition in vivo at 5 µmol/kg (blood glucose; [3]) of 20%, a response vs control in vivo at 24.2 mg/kg [2, 4] of 122% and a response vs control in vivo at 24.2 mg/kg [2, 5] of 104%.
Molecule `COC(=O)/C=C/c1ccc(CC(C)NCC(OC)c2cccc(Cl)c2)cc1` (centres unmarked) [Example 47, N-[2-(4-{[E]-2-Carbomethoxyethenyl}phenyl)-1-methylethyl]-2-methoxy-2-(3-chlorophenyl)ethanamine hydrochloride] has an inhibition in vivo at 12.5 µmol/kg (blood glucose; [3]) of 41%, a response vs control in vivo at 21.3 mg/kg [2, 4] of 130% and a response vs control in vivo at 21.3 mg/kg [2, 5] of 109%.
With `COC(CNC(C)Cc1ccc(OCCO)cc1)c1cccc(Cl)c1` (centres unmarked) [Example 48, N-[2-{4-(2-Hydroxyethoxy)phenyl}-1-methylethyl]-2-methoxy-2-(3-chlorophenyl)ethanamine hydrobromide] the inhibition in vivo at 0.5 µmol/kg (blood glucose; [3]) was 31%, the response vs control in vivo at 22.2 mg/kg [2, 4] was 128% and the response vs control in vivo at 22.2 mg/kg [2, 5] was 131%.
`COC(=O)Cc1ccc(CC(C)NCC(OC)c2cccc(Cl)c2)cc1` (centres unmarked) [Example 49, N-[2-(4-Carbomethoxymethylphenyl)-1-methylethyl]-2-methoxy-2-(3-chlorophenyl)ethanamine hydrochloride] gave an inhibition in vivo at 12.5 µmol/kg (blood glucose; [3]) of 47%, a response vs control in vivo at 20.6 mg/kg [2, 4] of 131% and a response vs control in vivo at 20.6 mg/kg [2, 5] of 135%.
`COC(=O)COc1ccc(CC(C)NCC(OCc2ccccc2)c2cccc(Cl)c2)cc1` (centres unmarked) [Example 50, N-[2-(4-Carbomethoxymethoxyphenyl)-1-methylethyl]-2-benzyloxy-2-(3-chlorophenyl)ethanamine hydrochloride] showed an inhibition in vivo at 2.5 µmol/kg (blood glucose; [3]) of 41%, a response vs control in vivo at 24.6 mg/kg [2, 4] of 142% and a response vs control in vivo at 24.6 mg/kg [2, 5] of 116%.
Work on `CNC(=O)COc1ccc(CCNCC(OC)c2cccc(Cl)c2)cc1` (centres unmarked) [Example 51, N-[2-(4-Methylaminocarbonylmethoxyphenyl)ethyl]-2-methoxy-2-(3-chlorophenyl)ethanamine hydrochloride] yielded an inhibition in vivo at 12.5 µmol/kg (blood glucose; 12.5 μmol/Kg oral, 2 h after glucose 1 g/Kg s.c., vs control, read-out: % Reduction in area under Blood Glucose Curve) of 45%, a response vs control in vivo at 20.7 mg/kg [2, 5] of 108% and a response vs control in vivo at 20.7 mg/kg ([2]; 20.7 mg/kg po, 0-3 h, read-out: Mean Energy Expenditure (0-3 h)) of 128%.
Work on `CNC(=O)COc1ccc(CC(C)NCC(COc2ccccc2)OC)cc1` (centres unmarked) [Example 52, N-[2-(4-Methylaminocarbonylmethoxyphenyl)-1-methylethyl]-2-methoxy-3-phenoxypropanamine hydrochloride] yielded an inhibition in vivo at 12.5 µmol/kg (blood glucose; [3]) of 35%, a response vs control in vivo at 21.1 mg/kg [2, 4] of 130% and a response vs control in vivo at 21.1 mg/kg [2, 5] of 113%.
Work on `CNC(=O)COc1ccc(CC(C)NCC(OC)c2ccccc2F)cc1` (centres unmarked) [Example 55, N-[2-(4-Methylaminocarbonylmethoxyphenyl)-1-methylethyl]-2-methoxy-2-(2-fluorophenyl)ethanamine hydrochloride] yielded an inhibition in vivo at 12.5 µmol/kg (blood glucose; [3]) of 42%, a response vs control in vivo at 20.6 mg/kg [2, 4] of 150% and a response vs control in vivo at 20.6 mg/kg [2, 5] of 121%.
`CNC(=O)COc1ccc(CC(C)NCC(OC)c2cccc(C)c2)cc1` (centres unmarked) [Example 56, N-[2-(4-Methylaminocarbonylmethoxyphenyl)-1-methylethyl]-2-methoxy-2-(3-methylphenyl)ethanamine hydrochloride] gave an inhibition in vivo at 12.5 µmol/kg (blood glucose; [3]) of 40%, a response vs control in vivo at 20.4 mg/kg [2, 4] of 148% and a response vs control in vivo at 20.4 mg/kg [2, 5] of 108%.
Work on `COC(CNC(C)Cc1ccc(OCCOc2ccccc2)cc1)c1cccc(Cl)c1` (centres unmarked) [Example 57, N-[2-(4-(2-Phenoxyethoxy)phenyl)-1-methylethyl]-2-methoxy-2-(3-chlorophenyl)ethanamine hydrochloride] yielded an inhibition in vivo at 2.5 µmol/kg (blood glucose; [3]) of 28%, a response vs control in vivo at 23.8 mg/kg [2, 4] of 178% and a response vs control in vivo at 23.8 mg/kg [2, 5] of 123%.
Molecule `COC(=O)CN(C)c1ccc(CC(C)NCC(OC)c2ccccc2)cc1` (centres unmarked) [Example 58, N-[2-(4-N'-Methyl-N'-carbomethoxymethylaminophenyl)-1-methylethyl]-2-methoxy-2-phenylethanamine dihydrochloride] has an inhibition in vivo at 2.5 µmol/kg (blood glucose; 2.5 μmol/Kg oral, 2 h after glucose 1 g/Kg s.c., vs control, read-out: % Reduction in area under Blood Glucose Curve) of 17%, a response vs control in vivo at 22.1 mg/kg [2, 5] of 108% and a response vs control in vivo at 22.1 mg/kg ([2]; 22.1 mg/kg po, 0-3 h, read-out: Mean Energy Expenditure (0-3 h)) of 131%.
In the case of `CNCCOc1ccc(C[C@@H](C)NC[C@H](OC)c2ccccc2)cc1` [Example 59, N-[2-(4-(2-Methylaminoethoxy)phenyl)-1-(R)-1-methylethyl]-2-(R)-2-methoxy-2-phenylethanamine dihydrochloride hemihydrate], the inhibition in vivo at 25 µmol/kg (blood glucose; 25 μmol/Kg oral, 2 h after glucose 1 g/Kg s.c., vs control, read-out: % Reduction in area under Blood Glucose Curve) is reported as 36%, the response vs control in vivo at 8.5 mg/kg ([2]; 0-3 h, read-out: Mean Energy Expenditure (0-3 h)) is reported as 148% and the response vs control in vivo at 8.5 mg/kg ([2]; 0-21 h, read-out: Mean Energy Expenditure (0-21 h)) is reported as 111%.
